Experiments:
HBV (2.2.15 cells) = test: Antiviral activity in 2.2.15 cells: reduction of viral product accumulation (qPCR of lysates, HBsAg or HBeAg ELISA); assay type: cell-based, hepatitis B virus (HBV); settings: Hepatitis B virus, 120 h, day 5 post treatment, 50% reduction of viral product accumulation in lysates or supernatants vs no drug controls, readout (qPCR, HBsAg, HBeAg) not specified
Method in brief: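 HBV-producing 2.2.15 cells, 35,000/well, treated with 5-fold serial compound dilutions at 0.5% final DMSO for 5 days. Lysate HBV DNA by qPCR or supernatant HBsAg/HBeAg by ELISA; EC50 is 50% reduction versus no-drug control, binned A<0.1 μM, B 0.1-1 μM, C>1 μM.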

[1] = Compound induced cellular toxicity in HepG2 cells (ATPlite 1 Step); assay type: cell-based; settings: human, three days, 50% reduction of total ATP levels vs no drug controls
Description: At day 3, post seeding cells are treated with ATPlite 1 Step according to the manufacturer's instructions.

| Structure (SMILES) | EC50 (HBV (2.2.15 cells)) | CC50 at 3 days [1] |
| --- | --- | --- |
| CC(C)(C)[C@@H]1Cc2c(cc(-c3ccoc3)c3c2CCO3)-c2cc(=O)c(C(=O)O)cn21 [Example 64, (S)-5-(tert-butyl)-12-(furan-3-yl)-9-oxo-2,3,4,9-tetrahydro-5H-furo[3,2-f]pyrido[2,1-a]isoquinoline-8-carboxylic Acid] | < 100 nM | < 10000 nM |
| COCCCOc1cc2c(cc1-c1ccnn1C)-c1cc(=O)c(C(=O)O)cn1[C@H](C(C)(C)C)C2 [Example 18, (S)-6-(tert-butyl)-9-(3-methoxypropoxy)-10-(1-methyl-1H-pyrazol-5-yl)-2-oxo-6,7-dihydro-2H-pyrido[2,1-a]isoquinoline-3-carboxylic Acid] | < 100 nM | > 25000 nM |
| CC(C)(C)[C@@H]1Cc2c(cc(-c3ccccc3)c3c2CCO3)-c2cc(=O)c(C(=O)O)cn21 [Example 67, (S)-5-(tert-butyl)-9-oxo-12-phenyl-2,3,4,9-tetrahydro-5H-furo[3,2-f]pyrido[2,1-a]isoquinoline-8-carboxylic Acid] | < 100 nM | < 10000 nM |
| COCCCOc1cc2c(cc1-c1cc3ccccc3[nH]1)-c1cc(=O)c(C(=O)O)cn1[C@H](C(C)(C)C)C2 [Example 19, (S)-6-(tert-butyl)-10-(1H-indol-2-yl)-9-(3-methoxypropoxy)-2-oxo-6,7-dihydro-2H-pyrido[2,1-a]isoquinoline-3-carboxylic Acid] | 100 to 1000 nM | > 25000 nM |
| COCCCOc1cc2c(cc1-c1ccoc1)-c1cc(=O)c(C(=O)O)cn1[C@H](C(C)(C)C)C2 [Example 2, (S)-6-(tert-butyl)-10-(furan-3-yl)-9-(3-methoxypropoxy)-2-oxo-6,7-dihydro-2H-pyrido[2,1-a]isoquinoline-3-carboxylic Acid] | < 100 nM | > 25000 nM |
| C[C@H]1Cc2c3c(cc(-c4ccoc4)c2O1)-c1cc(=O)c(C(=O)O)cn1[C@H](C(C)(C)C)C3 [Example 132, (2S,5S)-5-(tert-butyl)-12-(furan-3-yl)-2-methyl-9-oxo-2,3,4,9-tetrahydro-5H-furo[3,2-f]pyrido[2,1-a]isoquinoline-8-carboxylic Acid] | < 100 nM | < 10000 nM |
| COCCCOc1cc2c(cc1-c1cccs1)-c1cc(=O)c(C(=O)O)cn1[C@H](C(C)(C)C)C2 [Example 8, (S)-6-(tert-butyl)-9-(3-methoxypropoxy)-2-oxo-10-(thiophen-2-yl)-6,7-dihydro-2H-pyrido[2,1-a]isoquinoline-3-carboxylic Acid] | < 100 nM | 10000 to 25000 nM |
| CC(C)[C@@H]1Cc2c(cc(-c3ccsc3)c3c2CCO3)-c2cc(=O)c(C(=O)O)cn21 [Example 100, (S)-5-isopropyl-9-oxo-12-(thiophen-3-yl)-2,3,4,9-tetrahydro-5H-furo[3,2-f]pyrido[2,1-a]isoquinoline-8-carboxylic Acid] | < 100 nM | < 10000 nM |
| COc1cccc(-c2cc3c(c4c2OCC4)C[C@@H](C(C)(C)C)n2cc(C(=O)O)c(=O)cc2-3)c1 [Example 79, (S)-5-(tert-butyl)-12-(3-methoxyphenyl)-9-oxo-2,3,4,9-tetrahydro-5H-furo[3,2-f]pyrido[2,1-a]isoquinoline-8-carboxylic Acid] | < 100 nM | < 10000 nM |
| COCCCOc1cc2c(cc1-c1ocnc1C(F)(F)F)-c1cc(=O)c(C(=O)O)cn1[C@H](C(C)(C)C)C2 [Example 27, (S)-6-(tert-butyl)-9-(3-methoxypropoxy)-2-oxo-10-(4-(trifluoromethyl)oxazol-5-yl)-6,7-dihydro-2H-pyrido[2,1-a]isoquinoline-3-carboxylic Acid] | 100 to 1000 nM | > 25000 nM |
| COCCCOc1cc2c(cc1-c1ccc(C)o1)-c1cc(=O)c(C(=O)O)cn1[C@H](C(C)(C)C)C2 [Example 1, (S)-6-(tert-butyl)-9-(3-methoxypropoxy)-10-(5-methylfuran-2-yl)-2-oxo-6,7-dihydro-2H-pyrido[2,1-a]isoquinoline-3-carboxylic Acid] | < 100 nM | > 25000 nM |
